# Laboratory results taken from publication PMC5218480 (PLoS ONE, 2017).
# System: MV-4-11 cells
# Assay: Gene expression microarray analysis (Affymetrix PrimeView) and GSEA
# Type: cell-based, human
# Design: RFU PODN (11730768_x_at) / Fold change /veh PODN (11730768_x_at) / RFU LINC00158 (11744669_a_at) / Fold change /veh LINC00158 (11744669_a_at) / RFU DUSP10 (11751237_a_at) / Fold change /veh DUSP10 (11751237_a_at) / RFU ID3 (11757404_x_at) / Fold change /veh ID3 (11757404_x_at) / RFU PLEKHG5 (11737974_s_at) / Fold change /veh PLEKHG5 (11737974_s_at) / RFU LRRC4B (11730491_at) / Fold change /veh LRRC4B (11730491_at) / RFU GIMAP4 (11747438_a_at) / Fold change /veh GIMAP4 (11747438_a_at) / RFU KRT8 (11758183_x_at) / Fold change /veh KRT8 (11758183_x_at) / RFU CNN1 (11734310_a_at) / Fold change /veh CNN1 (11734310_a_at) / RFU VPS37D (11726825_at) / Fold change /veh VPS37D (11726825_at) / RFU C10orf10 (11716522_x_at) / Fold change /veh C10orf10 (11716522_x_at) / RFU KIR2DL2 /// KIR2DL4 /// KIR2DL5A /// KIR2DL5B /// KIR2DS1 /// KIR2DS2 /// KIR2DS3 /// KIR2DS4 /// KIR3DL3 /// KIR3DL3 /// KIR3DS1 (11738374_at) / Fold change /veh KIR2DL2 /// KIR2DL4 /// KIR2DL5A /// KIR2DL5B /// KIR2DS1 /// KIR2DS2 /// KIR2DS3 /// KIR2DS4 /// KIR3DL3 /// KIR3DL3 /// KIR3DS1 (11738374_at) / RFU C1QL1 (11718748_at) / Fold change /veh C1QL1 (11718748_at) / RFU TMPRSS4 (11747572_a_at) / Fold change /veh TMPRSS4 (11747572_a_at) / RFU HAMP (11756126_x_at) / Fold change /veh HAMP (11756126_x_at) / RFU RNFT2 (11725882_a_at) / Fold change /veh RNFT2 (11725882_a_at) / RFU NR4A2 (11747474_a_at) / Fold change /veh NR4A2 (11747474_a_at) / RFU ABCC12 (11746883_a_at) / Fold change /veh ABCC12 (11746883_a_at) / RFU TMEM136 (11760407_x_at) / Fold change /veh TMEM136 (11760407_x_at) / RFU CLDN22 /// WWC2 (11732394_at) / Fold change /veh CLDN22 /// WWC2 (11732394_at) / RFU HLA-DPB1 (11760878_x_at) / Fold change /veh HLA-DPB1 (11760878_x_at) / RFU SPINT1 (11716480_a_at) / Fold change /veh SPINT1 (11716480_a_at) / RFU GAP43 (11754022_s_at) / Fold change /veh GAP43 (11754022_s_at) / RFU A4GNT (11735810_at) / Fold change /veh A4GNT (11735810_at) / RFU PRB3 (11715151_x_at) / Fold change /veh PRB3 (11715151_x_at) / RFU TUBB4B (11761932_at) / Fold change /veh TUBB4B (11761932_at) / RFU CAPN14 (11732068_a_at) / Fold change /veh CAPN14 (11732068_a_at) / RFU TMCC2 (11721928_a_at) / Fold change /veh TMCC2 (11721928_a_at) / RFU IRGQ (11745062_a_at) / Fold change /veh IRGQ (11745062_a_at) / RFU FAM174B (11720279_a_at) / Fold change /veh FAM174B (11720279_a_at) / RFU TMPRSS4 (11748680_a_at) / Fold change /veh TMPRSS4 (11748680_a_at) / RFU FAM212B (11763350_a_at) / Fold change /veh FAM212B (11763350_a_at) / RFU PLEKHG5 (11743358_a_at) / Fold change /veh PLEKHG5 (11743358_a_at) / RFU ZSCAN30 (11745921_a_at) / Fold change /veh ZSCAN30 (11745921_a_at) / RFU CMKLR1 (11741424_a_at) / Fold change /veh CMKLR1 (11741424_a_at) / RFU LOC101060620 /// MAPK8IP1 (11723275_at) / Fold change /veh LOC101060620 /// MAPK8IP1 (11723275_at) / RFU SPTSSB (11747773_x_at) / Fold change /veh SPTSSB (11747773_x_at) / RFU PRSS12 (11739890_at) / Fold change /veh PRSS12 (11739890_at) / RFU BIN1 (11741810_x_at) / Fold change /veh BIN1 (11741810_x_at) / RFU WNT11 (11732464_a_at) / Fold change /veh WNT11 (11732464_a_at) / RFU C10orf10 (11716521_a_at) / Fold change /veh C10orf10 (11716521_a_at) / RFU C5orf56 (11738089_at) / Fold change /veh C5orf56 (11738089_at) / RFU CYB561 (11721691_x_at) / Fold change /veh CYB561 (11721691_x_at) / RFU ANKRD19P (11752326_a_at) / Fold change /veh ANKRD19P (11752326_a_at) / RFU OR2T12 /// OR2T33 /// OR2T8 (11738714_s_at) / Fold change /veh OR2T12 /// OR2T33 /// OR2T8 (11738714_s_at) / RFU VCAN (11748164_a_at) / Fold change /veh VCAN (11748164_a_at) / RFU JSRP1 (11732532_at) / Fold change /veh JSRP1 (11732532_at) / RFU KRTAP10-11 (11738290_x_at) / Fold change /veh KRTAP10-11 (11738290_x_at) / RFU MYO3A (11730013_a_at) / Fold change /veh MYO3A (11730013_a_at) / RFU EBF3 (11725865_a_at) / Fold change /veh EBF3 (11725865_a_at) / RFU CAMK2N1 (11719241_x_at) / Fold change /veh CAMK2N1 (11719241_x_at) / RFU C5orf56 (11738088_a_at) / Fold change /veh C5orf56 (11738088_a_at) / RFU OLFML3 (11715873_a_at) / Fold change /veh OLFML3 (11715873_a_at) / RFU LOC100653217 /// NTM (11731650_a_at) / Fold change /veh LOC100653217 /// NTM (11731650_a_at) / RFU MAPK11 (11762145_a_at) / Fold change /veh MAPK11 (11762145_a_at) / RFU FIZ1 (11724087_x_at) / Fold change /veh FIZ1 (11724087_x_at) / RFU OASL (11726364_x_at) / Fold change /veh OASL (11726364_x_at) / RFU SOX15 (11748057_x_at) / Fold change /veh SOX15 (11748057_x_at) / RFU CD79A (11719716_a_at) / Fold change /veh CD79A (11719716_a_at) / RFU HIST1H1D (11736915_at) / Fold change /veh HIST1H1D (11736915_at) / RFU CASKIN2 (11723855_a_at) / Fold change /veh CASKIN2 (11723855_a_at) / RFU LOC730098 (11760151_x_at) / Fold change /veh LOC730098 (11760151_x_at) / RFU OR4N2 (11742367_at) / Fold change /veh OR4N2 (11742367_at) / RFU PRRT2 (11749266_a_at) / Fold change /veh PRRT2 (11749266_a_at) / RFU SNX32 (11753110_a_at) / Fold change /veh SNX32 (11753110_a_at) / RFU CDHR5 (11726645_a_at) / Fold change /veh CDHR5 (11726645_a_at) / RFU RCAN1 (11760418_a_at) / Fold change /veh RCAN1 (11760418_a_at) / RFU FAM167A (11723789_a_at) / Fold change /veh FAM167A (11723789_a_at) / RFU FAM26E (11764081_at) / Fold change /veh FAM26E (11764081_at) / RFU ISYNA1 (11749810_s_at) / Fold change /veh ISYNA1 (11749810_s_at) / RFU ACY1 (11761880_at) / Fold change /veh ACY1 (11761880_at) / RFU 11764098_at / Fold change /veh 11764098_at / RFU SAMD14 (11745864_x_at) / Fold change /veh SAMD14 (11745864_x_at) / RFU NPB (11741838_a_at) / Fold change /veh NPB (11741838_a_at) / RFU TMPRSS6 (11731388_a_at) / Fold change /veh TMPRSS6 (11731388_a_at) / RFU KRTAP10-2 (11738614_at) / Fold change /veh KRTAP10-2 (11738614_at) / RFU ARHGAP8 /// PRR5-ARHGAP8 (11727945_x_at) / Fold change /veh ARHGAP8 /// PRR5-ARHGAP8 (11727945_x_at) / RFU KRTAP5-7 /// NADSYN1 (11734609_at) / Fold change /veh KRTAP5-7 /// NADSYN1 (11734609_at) / RFU RASL12 (11751679_a_at) / Fold change /veh RASL12 (11751679_a_at) / RFU CDKN2B (11736163_a_at) / Fold change /veh CDKN2B (11736163_a_at) / RFU PRF1 (11729649_at) / Fold change /veh PRF1 (11729649_at) / RFU, ZNF638 /// ZNF638-IT1 / Fold change vs veh, ZNF638 /// ZNF638-IT1 / RFU, PANK3 / Fold change vs veh, PANK3 / RFU, SH3YL1 / Fold change vs veh, SH3YL1 / RFU, ZEB2 / Fold change vs veh, ZEB2 / RFU, NRIP1 / Fold change vs veh, NRIP1 / RFU, PTTG1IP / Fold change vs veh, PTTG1IP / RFU, CAPN2 / Fold change vs veh, CAPN2 / RFU, MED14 / Fold change vs veh, MED14 / RFU, SNORA58 / Fold change vs veh, SNORA58 / RFU, C1orf63 / Fold change vs veh, C1orf63 / RFU, LRRFIP1 / Fold change vs veh, LRRFIP1 / RFU, NDUFAF7 / Fold change vs veh, NDUFAF7 / RFU, SLC12A2 / Fold change vs veh, SLC12A2 / RFU, IBTK / Fold change vs veh, IBTK / RFU, ESF1 / Fold change vs veh, ESF1 / Fold change vs veh, TMEM50B / RFU, TAOK1 / Fold change vs veh, TAOK1 / RFU, ACBD3 / Fold change vs veh, ACBD3 / RFU, TMA16 / Fold change vs veh, TMA16 / RFU, RWDD3 / Fold change vs veh, RWDD3 / RFU, BCAT1 / Fold change vs veh, BCAT1 / RFU, EDEM3 / Fold change vs veh, EDEM3 / RFU, TMEM33 / Fold change vs veh, TMEM33 / RFU, WDR75 / Fold change vs veh, WDR75 / RFU, AHCTF1 / Fold change vs veh, AHCTF1 / RFU, TFRC / Fold change vs veh, TFRC / RFU, ZDHHC17 / Fold change vs veh, ZDHHC17 / RFU, NOM1 / Fold change vs veh, NOM1 / RFU, ARL8B / Fold change vs veh, ARL8B / RFU, ZBTB11 / Fold change vs veh, ZBTB11 / RFU, TAMM41 / Fold change vs veh, TAMM41 / RFU, KIAA1704 /// LOC100996395 / Fold change vs veh, KIAA1704 /// LOC100996395 / RFU, ING1 / Fold change vs veh, ING1 / RFU, TRMT61B / Fold change vs veh, TRMT61B / RFU, FUBP3 / Fold change vs veh, FUBP3 / RFU, TP53 / Fold change vs veh, TP53 / RFU, TNKS2 / Fold change vs veh, TNKS2 / RFU, ZFP14 / Fold change vs veh, ZFP14 / RFU, ACTR2 / Fold change vs veh, ACTR2 / RFU, PPP3R1 / Fold change vs veh, PPP3R1 / RFU, PIK3R1 / Fold change vs veh, PIK3R1 / RFU, HNRNPA1 / Fold change vs veh, HNRNPA1 / RFU, RNF170 / Fold change vs veh, RNF170 / RFU, ZNF28 / Fold change vs veh, ZNF28 / RFU, RNGTT / Fold change vs veh, RNGTT / RFU, OGT / Fold change vs veh, OGT / RFU, BRD1 / Fold change vs veh, BRD1 / RFU, MARS / Fold change vs veh, MARS / RFU, ZNF655 / Fold change vs veh, ZNF655 / RFU, FAHD1 / Fold change vs veh, FAHD1 / RFU, BDP1 / Fold change vs veh, BDP1 / RFU, LRRCC1 / Fold change vs veh, LRRCC1 / RFU, ARID1A / Fold change vs veh, ARID1A / RFU, ZNF146 / Fold change vs veh, ZNF146 / RFU, ZNF330 / Fold change vs veh, ZNF330 / RFU, GPN3 / Fold change vs veh, GPN3 / RFU, C9orf123 / Fold change vs veh, C9orf123 / RFU, N4BP2L2 / Fold change vs veh, N4BP2L2 / RFU, ARFIP1 / Fold change vs veh, ARFIP1 / RFU, FAM179B / Fold change vs veh, FAM179B / RFU, BCL10 / Fold change vs veh, BCL10 / RFU, UHRF1BP1L / Fold change vs veh, UHRF1BP1L / RFU, BET1 / Fold change vs veh, BET1 / RFU, CNOT2 / Fold change vs veh, CNOT2 / RFU, ZNF268 / Fold change vs veh, ZNF268 / Fold change vs veh, ZNF507 / RFU, DGCR2 / Fold change vs veh, DGCR2 / RFU, WDSUB1 / Fold change vs veh, WDSUB1 / Fold change vs veh, HSP90B1 /// MIR3652 / RFU, ADSS / Fold change vs veh, ADSS / RFU, GK / Fold change vs veh, GK / RFU, ZNF148 / Fold change vs veh, ZNF148 / RFU, TAF9 / Fold change vs veh, TAF9 / RFU, SLC1A5 / Fold change vs veh, SLC1A5 / RFU, SLMO2 / Fold change vs veh, SLMO2 / RFU, ABCC4 / Fold change vs veh, ABCC4 / RFU, LOC101060439 /// RAP1B / Fold change vs veh, LOC101060439 /// RAP1B / RFU, RFX7 / Fold change vs veh, RFX7 / RFU, GTPBP10 / Fold change vs veh, GTPBP10 / RFU, CNEP1R1 / Fold change vs veh, CNEP1R1 / RFU, BIVM-ERCC5 /// ERCC5 / Fold change vs veh, BIVM-ERCC5 /// ERCC5 / RFU, ILF3 / Fold change vs veh, ILF3 / RFU 11762660_at / Fold change /veh 11762660_at / RFU VCAN (11757783_s_at) / Fold change /veh VCAN (11757783_s_at) / RFU DDX43 (11728927_at) / Fold change /veh DDX43 (11728927_at) / RFU KRT8 (11758188_x_at) / Fold change /veh KRT8 (11758188_x_at) / RFU NKD1 (11759106_at) / Fold change /veh NKD1 (11759106_at) / RFU SRD5A1 (11742802_a_at) / Fold change /veh SRD5A1 (11742802_a_at) / RFU TPSAB1 /// TPSB2 (11721975_s_at) / Fold change /veh TPSAB1 /// TPSB2 (11721975_s_at) / RFU GSTM3 (11746129_a_at) / Fold change /veh GSTM3 (11746129_a_at) / RFU IL23R (11737362_x_at) / Fold change /veh IL23R (11737362_x_at) / RFU TMEM51 (11727254_a_at) / Fold change /veh TMEM51 (11727254_a_at) / RFU PIWIL2 (11732686_x_at) / Fold change /veh PIWIL2 (11732686_x_at) / RFU ORM1 (11744905_x_at) / Fold change /veh ORM1 (11744905_x_at) / RFU CCDC152 (11743942_at) / Fold change /veh CCDC152 (11743942_at) / RFU ECM1 (11717891_a_at) / Fold change /veh ECM1 (11717891_a_at) / RFU IL23R (11748794_a_at) / Fold change /veh IL23R (11748794_a_at) / RFU TNFAIP8L3 (11732012_x_at) / Fold change /veh TNFAIP8L3 (11732012_x_at) / RFU MBOAT4 (11741988_at) / Fold change /veh MBOAT4 (11741988_at) / RFU 11764193_at / Fold change /veh 11764193_at / RFU TMEM53 (11763286_at) / Fold change /veh TMEM53 (11763286_at) / RFU MAGEB2 (11727129_at) / Fold change /veh MAGEB2 (11727129_at) / RFU TMEM200A (11744735_a_at) / Fold change /veh TMEM200A (11744735_a_at) / RFU CCDC152 (11751479_a_at) / Fold change /veh CCDC152 (11751479_a_at) / RFU FAM211A (11726209_a_at) / Fold change /veh FAM211A (11726209_a_at) / RFU RGS16 (11746705_a_at) / Fold change /veh RGS16 (11746705_a_at) / RFU VCAN (11755009_s_at) / Fold change /veh VCAN (11755009_s_at) / RFU RHOB (11743442_s_at) / Fold change /veh RHOB (11743442_s_at) / RFU RGS16 (11720943_a_at) / Fold change /veh RGS16 (11720943_a_at) / RFU RGS16 (11720944_at) / Fold change /veh RGS16 (11720944_at) / RFU, VPS4B / Fold change vs veh, VPS4B / RFU, CREB1 / Fold change vs veh, CREB1 / RFU, DNAJC13 / Fold change vs veh, DNAJC13 / RFU, GNAQ / Fold change vs veh, GNAQ / RFU, CDK5R1 / Fold change vs veh, CDK5R1 / RFU, ZRANB3 / Fold change vs veh, ZRANB3 / RFU, CUL4A / Fold change vs veh, CUL4A / RFU, CCNY / Fold change vs veh, CCNY / RFU, UFL1 / Fold change vs veh, UFL1 / RFU, COG3 / Fold change vs veh, COG3 / RFU, DIAPH2 / Fold change vs veh, DIAPH2 / RFU, SKA2 / Fold change vs veh, SKA2 / RFU, AFF3 / Fold change vs veh, AFF3 / RFU, LMF1 / Fold change vs veh, LMF1 / RFU, IPO11 / Fold change vs veh, IPO11 / RFU, DFFB / Fold change vs veh, DFFB / RFU, FOXP1 / Fold change vs veh, FOXP1 / RFU, CARD8 / Fold change vs veh, CARD8 / RFU, STRN3 / Fold change vs veh, STRN3 / RFU, ADK / Fold change vs veh, ADK / RFU, RASSF2 / Fold change vs veh, RASSF2 / RFU, WIPF1 / Fold change vs veh, WIPF1 / RFU, LARP1B / Fold change vs veh, LARP1B / RFU, RASA1 / Fold change vs veh, RASA1 / RFU, RB1 / Fold change vs veh, RB1 / RFU, PPFIA1 / Fold change vs veh, PPFIA1 / RFU, MAT2A / Fold change vs veh, MAT2A / RFU, CCT5 / Fold change vs veh, CCT5 / RFU, WDR92 / Fold change vs veh, WDR92 / RFU, CUX1 / Fold change vs veh, CUX1 / RFU, TTC7A / Fold change vs veh, TTC7A / RFU, TMEM135 / Fold change vs veh, TMEM135 / RFU, DEPTOR / Fold change vs veh, DEPTOR / RFU, CPM / Fold change vs veh, CPM / RFU, DNAJB6 / Fold change vs veh, DNAJB6 / RFU, CACNA2D3 / Fold change vs veh, CACNA2D3 / RFU, DTX4 / Fold change vs veh, DTX4 / RFU, TFCP2 / Fold change vs veh, TFCP2 / RFU, GMCL1 /// GMCL1P1 / Fold change vs veh, GMCL1 /// GMCL1P1 / RFU, AEBP2 / Fold change vs veh, AEBP2 / RFU, SNHG1 /// SNORD22 /// SNORD25 /// SNORD26 /// SNORD27 /// SNORD28 /// SNORD29 /// SNORD31 / Fold change vs veh, SNHG1 /// SNORD22 /// SNORD25 /// SNORD26 /// SNORD27 /// SNORD28 /// SNORD29 /// SNORD31 / Fold change (Aza/veh), C12orf56 (ProbeSet 11735607_a_at) / Fold change (ACY-1035/veh), C12orf56 (ProbeSet 11735607_a_at) / Fold change (Aza/veh), FGFR1OP (ProbeSet 11751329_s_at) / Fold change (ACY-1035/veh), FGFR1OP (ProbeSet 11751329_s_at) / Fold change (Aza/veh), VPS36 (ProbeSet 11739960_a_at) / Fold change (ACY-1035/veh), VPS36 (ProbeSet 11739960_a_at) / RFU SYPL1 (11715823_x_at) / Fold change /veh SYPL1 (11715823_x_at) / RFU IGFBP7 (11715501_s_at) / Fold change /veh IGFBP7 (11715501_s_at) / RFU REEP3 (11722064_at) / Fold change /veh REEP3 (11722064_at) / RFU IGLL1 (11728026_x_at) / Fold change /veh IGLL1 (11728026_x_at): dose or concentration left out as unconfirmed
# Settings: MV-4-11 cells, 48 hours
structure (smiles),measurement,value
Nc1ccc(-c2cccs2)cc1NC(=O)c1ccc2c(c1)cc(C1CC1)n2CCN1CCOCC1 [ACY-1035],Fold change /veh DDX43 (11728927_at),1.03
